# Data reported in patent US20070224150A1, “Growth factor for hair and skin treatment” (priority 2005, published 2007).
# Test system: HACAT cells
# Assay: HACAT cell proliferation, MTT bioassay
# Format: cell-based
# Description: HACAT cells were seeded in 96 well plates and cultured for one day in DMEM medium with 10% FBS, then subjected to starvation for one day. After starvation, the cells were treated for three days with various dosages of EGF in serum free media. […] The ED50 was approximately 300 pg/ml.
# HACAT cells were seeded in 96 well plates and cultured for one day in DMEM medium with 10% FBS, then subjected to starvation for one day. After starvation, the cells were treated for three days with various dosages of Anti-Aging Cytokine Complex AC (“AC ”), i.e. a mixture comprising EGF, bFGF, IGF-1 and TRX, in serum free media.
# FIG. 3A depicts control cells, FIG. 3B cells treated with 0.5 ng/ml EGF, and FIG. 3C cells treated with 0.5 ng/ml of AC.
substance,measurement,setting,value
"EGF: epidermal growth factor, composed of 53 amino acids",ED50 (cell proliferation),"starved one day, treated three days in serum free media",approximately 300 pg/ml
same,cell proliferation ratio versus untreated controls,"three days, serum free media",higher cell proliferation ratios than the untreated controls
